Patent WO2018160794A1, “Epha2-targeted docetaxel -generating liposomes in combination with an agent that impedes regulatory t cell activity for treating cancer” (dated 2018)

Tests used:
EMT-6 [1] = experiment: In vivo tumor growth inhibition in EMT-6 model versus dose-dense and standard docetaxel (Example 6); parameters: species or system mouse; details: EMT-6, Example 6; docetaxel 3.33 mg/kg three times a week (DTX-DD); Figure 7A
T cells in EMT-6 tumors = experiment: FACS of immune cell infiltrate in EMT-6 tumors versus dose-dense and standard docetaxel (Example 6); type: in vivo, mouse; details: EMT-6, Example 6
MC38 = experiment: In vivo antitumor efficacy in MC38 colon cancer model (Example 8); parameters: species or system mouse; details: MC38, C57BL6/J mice; days after treatment initiation; Figure 9B
EMT-6 [2] = experiment: In vivo antitumor efficacy in EMT-6 model versus free docetaxel (Example 3); parameters: species or system mouse; details: EMT-6, Example 3

## CC(=O)O[C@@]12CO[C@@H]1C[C@H](O)[C@@]1(C)C(=O)[C@H](O)C3=C(C)[C@@H](OC(=O)[C@H](O)[C@@H](NC(=O)OC(C)(C)C)c4ccccc4)C[C@@](O)([C@@H](OC(=O)c4ccccc4)[C@H]21)C3(C)C [docetaxel]
EMT-6 [1]
  tumor growth inhibition (in words): improved growth inhibition relative to DTX-MTD, but it did not recapitulate the inhibition observed in 46scFv-ILs-DTXp3 treatment
T cells in EMT-6 tumors; dose-dense docetaxel (DTX-DD), 3.33 mg/kg three times a week
  effect on intratumoral immune cell populations: Neither the dose-dense (DTX-DD) nor the weekly (DTX-MTD) docetaxel treatment groups were observed to affect these intratumoral immune cell populations
T cells in EMT-6 tumors; weekly docetaxel (DTX-MTD), 10 mg/kg once a week
  effect on intratumoral immune cell populations: Neither the dose-dense (DTX-DD) nor the weekly (DTX-MTD) docetaxel treatment groups were observed to affect these intratumoral immune cell populations
MC38
  median survival: 16 days
EMT-6 [2]
  tumor regression: no tumor regression
EMT-6 [2]; monotherapy, PD-1 10 mg/kg twice weekly, docetaxel 10 mg/kg q1w
  growth arrest: minimal growth arrest
